Test results from article PMC11589570, “Critical assessment of LC3/GABARAP ligands used for degrader development and ligandability of LC3/GABARAP binding pockets” (Nature Communications, 2024).
Where “and” joins values, the source holds several entries; their conditions need not be identical. Equal values may be shown once.

Experiments:
[1] = biological target: T1, LC3A (Homo sapiens, UniProt Q9H492); assay: Spectral shift assay (Dianthus), cysteine-labelled protein; assay type: binding; details: Repeat 1 and Repeat 2, listed as 8F20 (3)
Procedure: Affinity determination using spectral shift mode on Dianthus: To determine dissociation constants, the Dianthus instrument (NanoTemper Technologies GmbH, Germany) was used to monitor molecular interactions. […] Protein was labelled with RED-maleimide 2nd Generation (cat# MO-L014; NanoTemper Technologies GmbH). Labeling was carried out following the manufacturer protocol, using a 3:1 ratio dye:protein. […] Protein was purified in 30 mM HEPES, 100 mM NaCl, 0.05% Tween, pH 7.5. […] Measurements were performed in spectral shift mode with an LED excitation power of 100%. Data were analyzed using the DI.Screening Analysis Software (v.2.0.4) (NanoTemper Technologies GmbH, Germany) and quality criteria values including Δ Ratio, Signal-to-Noise-Ratio, Fit Saturation and KD values were determined.

[2] = biological target: T2, NanoLuc-fusion full-length LC3A (Homo sapiens, UniProt Q9H492); assay: NanoBRET cellular target engagement assay in HEK293T cells; assay type: cell-based; details: LC3A; 1 µM tracer; compound 4 for tracer 16, compound 3 for tracer 17
T2 construct: a fluorescent donor (in this case full length LC3A and LC3B); expressed in transfected cells; host or cells: HEK293T (ATCC; CRL-11268)

[3] = biological target: T3, NanoLuc-fusion full-length LC3B (Homo sapiens, UniProt Q9GZQ8); assay: as above; assay type: cell-based; details: LC3B; 1 µM tracer; compound 4 for tracer 16, compound 3 for tracer 17
T3 construct: a fluorescent donor (in this case full length LC3A and LC3B); expressed in transfected cells; host or cells: HEK293T (ATCC; CRL-11268)

[4] = Cell viability measurements; assay type: cell-based; design: Cell viability: scale not given here; details: two replicate columns; for Cell viability: listed as 8F20
Text: 1 Source data for Supplementary Fig. 8a-f are provided as a Source Data file.

[5] = system: live cells of the growth assay; assay: Analysis of images of the live cell growth assay (cell morphology); assay type: cell-based; details: consistent with G2/M arrest
Procedure: Using RPE1 and U2OS cells, cell growth was monitored in live cells over a time course of 72 h after treatment with the respective compounds.
Cell growth assay: Cell confluence (phase) from RPE1 (hTERT RPE-1, ATCC CLR_4000) or U2OS (ATCC, HTB-96) cell lines were monitored over time with the IncuCyte S3 (Sartiorius, Germany) in 384-well plates in 50 ul DMEM media, supplemented with 10% Fetal Bovine Serum (FBS) 1% penicillin/Streptomycin and incubated 24 h before treatment. […] Cell confluence is represented as % of area covered by cells. Each data point represents the average ratio or confluence obtained from three individual wells of the plate.

[6] = biological target: T1, LC3A; assay: FP assay with 10O5- and 8F20-based dye-linked tracers 16 and 17; details: LC3A; compound 3 for tracer 17, compound 4 for tracer 16

## Cc1ccc(C(=O)N(CCCN)[C@@H](c2nc3cc(Cl)ccc3c(=O)n2Cc2ccccc2)C(C)C)cc1 [compound 3, (R)-N-(3-aminopropyl)-N-(1-(3-benzyl-7-chloro-4-oxo-3,4-dihydroquinazolin-2-yl)−2-methylpropyl)−4-methylbenzamide]
[1]; compound 15.2588 nM titrated against LC3A
  Initial Fluorescence: 10115.139 and 10590.376
[1]; compound 30.5176 nM titrated against LC3A
  Initial Fluorescence: 10801.294 and 10751.715
[1]; compound 61.0352 nM titrated against LC3A
  Initial Fluorescence: 10969.053 and 11514.474
[1]; compound 122.07 nM titrated against LC3A
  Initial Fluorescence: 10805.714 and 11350.170
[1]; compound 244.141 nM titrated against LC3A
  Initial Fluorescence: 12437.260 and 12829.142
[1]; compound 488.281 nM titrated against LC3A
  Initial Fluorescence: 11460.432 and 11424.556
[1]; compound 976.562 nM titrated against LC3A
  Initial Fluorescence: 11304.154 and 11789.590
[1]; compound 1953.12 nM titrated against LC3A
  Initial Fluorescence: 11136.164 and 11540.347
[1]; compound 3906.25 nM titrated against LC3A
  Initial Fluorescence: 11540.226 and 11678.705
[1]; compound 7812.5 nM titrated against LC3A
  Initial Fluorescence: 12368.631 and 13118.831
[1]; compound 15625 nM titrated against LC3A
  Initial Fluorescence: 13549.037 and 11303.453
[1]; compound 31250 nM titrated against LC3A
  Initial Fluorescence: 12093.613 and 11816.274
[1]; compound 62500 nM titrated against LC3A
  Initial Fluorescence: 12824.797 and 12883.571
[1]; compound 125000 nM titrated against LC3A
  Initial Fluorescence: 12380.010 and 12980.949
[1]; compound 250000 nM titrated against LC3A
  Initial Fluorescence: 12405.646 and 13536.280
[2]
  NanoBRET signal / tracer displacement: No displacement
[3]
  NanoBRET signal / tracer displacement: No displacement
[4]; log concentration [M] -4.69897
  viability at 20 µM: 0.689%
  Cell viability: 1.283
[4]; log concentration [M] -5.12494
  viability at 7.5 µM: 91.3%
  Cell viability: 92.2351
[4]; log concentration [M] -5.60206
  viability at 2.5 µM: 96.5%
  Cell viability: 100.107
[4]; log concentration [M] -6.00436
  viability at […]: 93.4%
  Cell viability: 93.5465
[4]; log concentration [M] -6.52288
  viability at 0.3 µM: 103%
  Cell viability: 93.076
[4]; log concentration [M] -6.90309
  viability at 0.125 µM: 105%
  Cell viability: 93.9495
[4]; log concentration [M] -7.30103
  viability at 0.05 µM: 102%
  Cell viability: 103.3
[4]; log concentration [M] -7.78915
  viability at 0.01625 µM: 96.5%
  Cell viability: 90.0205
[4]; log concentration [M] -8.06399
  viability at […]: 103%
  Cell viability: 92.6947
[4]; log concentration [M] -8.30103
  viability at 0.005 µM: 99.5%
  Cell viability: 91.472
[4]; log concentration [M] -8.67778
  viability at 0.0021 µM: 99.1%
  Cell viability: 90.5247
[5]
  cell morphology in live cell images: increased number of rounded cells
[6]
  displacement of dye-linked tracer by parent compound: no displacement
